Assay results reported in patent US7390783B2, “Charged phospholipid compositions and methods for their use” (Ottawa Heart Institute Research Corporation, priority 2000, dated 2008).
“Also recorded” adds a separate entry of the source.

Key:
lipoprotein lipase = molecular target: T1, lipoprotein lipase (Homo sapiens, UniProt P06858); experiment: Lipid hydrolysis by lipoprotein lipase in plasma enriched with charged lipid; assay type: biochemical; conditions: not shown
T1 sequence (P06858 28-475): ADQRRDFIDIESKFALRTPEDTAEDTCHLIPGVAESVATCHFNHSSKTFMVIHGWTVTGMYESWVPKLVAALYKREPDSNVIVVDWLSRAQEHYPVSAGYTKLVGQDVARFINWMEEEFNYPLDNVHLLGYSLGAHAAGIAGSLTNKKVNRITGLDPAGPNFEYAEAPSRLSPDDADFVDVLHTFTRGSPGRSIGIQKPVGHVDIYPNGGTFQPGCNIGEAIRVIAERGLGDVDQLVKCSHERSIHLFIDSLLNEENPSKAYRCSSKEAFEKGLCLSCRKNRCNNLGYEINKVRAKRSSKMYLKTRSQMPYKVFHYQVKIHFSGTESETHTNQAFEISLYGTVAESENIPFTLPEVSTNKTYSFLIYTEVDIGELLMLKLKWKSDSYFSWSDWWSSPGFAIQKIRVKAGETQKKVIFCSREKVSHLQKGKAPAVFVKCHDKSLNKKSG
Excerpt: Referring now to FIG. 10, there is shown the effect of lipoprotein charge on hepatic lipase. High density lipoprotein particles were enriched to contain various amounts of anionic or cationic lipids and then characterized as substrates for pure human hepatic lipase. Decreasing the net negative charge on the lipoprotein was associated with a reduction in the lipolytic activity of is hepatic lipase. Lipoprotein charge can also be used to regulate lipoprotein lipase. […] Lipid hydrolysis by hepatic or lipoprotein lipase can therefore be affected by alterations in the charge properties of plasma lipoproteins.

[1] = tested on: HDL, LDL and VLDL cholesterol; experiment: PI injections into hypercholesterolemic (cholesterol-fed) rabbits: lipoprotein cholesterol levels; assay type: in vivo, rabbit; conditions: 36 mg 2× daily for 7 days
Description: Referring now to FIG. 8, there is graphically depicted the effect of PI injection on lipoprotein cholesterol levels in hypercholesterolemic rabbits. Rabbits were fed a diet enriched in cholesterol for a period of 4 weeks to increase the levels of cholesterol in the LDL and VLDL particles in the bloodstream. One half of the study rabbits were then injected with 36 mg of PI 2× daily for 7 days. On day 7, plasma samples were drawn and lipoproteins were fractionated by size exclusion chromatography on two Superose 6 columns. Shown are gel filtration profiles for the different rabbit plasmas, which illustrate the levels of cholesterol in the various lipoprotein fractions. The untreated hypercholesterolemic rabbit plasma sample is shown to have high levels of LDL and VLDL cholesterol. PI injections caused a greater than 7-fold reduction in VLDL cholesterol and about a 2.5-fold reduction in LDL cholesterol levels over the 7 day period. […] PI therefore can be used to treat hypercholesterolemia and reduce plasma LDL and VLDL cholesterol levels.

HDL, LDL and VLDL = experiment: Lipoprotein surface charge after injection of PI or PC vesicles into rabbits (agarose gel electrophoresis); assay type: in vivo, rabbit
Description: 1-palmitoyl-2-oleoyl-phosphatidylcholine (PC) and 1-palmitoyl-2-oleoyl phosphatidylinositol (PI) vesicles are prepared by drying to completion 40 μmol of each lipid into a 12×75 mm culture tube under N2. The lipids are solubilized in 3 mL of sterile saline comprising 150 mM sodium chloride (pH 7.2) by sonication for 1 minute at constant duty cycle. The vesicles are incubated at 37° C. for 10 minutes and then sonicated at a high output for 4 minutes in 10° C. water bath under N2. In order to determine the rate of clearance of cholesterol from the test animals (rabbits), a radioactive tracer is added to the vesicle preparations prior to injection into the rabbit. 200 μL of 1 μCi/μmL [^3H]-FC is dried into a 12×75 mm culture tube with 40 μmol of PI or POPC. 3 ml of PBS is added to the dried lipids and the mixture is sonicated as described above. This tracer/vesicle preparation is injected and then 5 min later, the PI or PC vesicles were injected and blood is sampled as described below.
Male New Zealand white rabbits (3.5-4.0 kg) are fasted for 12 hours prior to injection and remain fasted until after data for the final time point is taken. Rabbits have free access to water during this time. A catheter is inserted into the marginal ear vein and blood samples are collected into tubes containing 7.5% (K3) EDTA solution at the desired time points. A pre-injection blood sample is taken and the vesicle solution of either PI (n=4), or PC (n=2) or saline (n=1) is injected into the marginal ear vein. A sample of blood is removed at 10, 30 min, 1, 3, 6 and 24 h after the injection. All blood samples are placed on ice and then centrifuged at 3000 rpm for 15 min at 4° C. to separate the plasma. In order to ensure that lecithin:cholesterol acyl transferase (LCAT) is inhibited in the stored plasma, iodoacetamide (150 mM) is added to plasma samples as taught by Guerin et al. (1994).
Lipoprotein fractions are isolated by sequential ultracentrifugation (VLDL+IDL, d<1.019 g/mL; LDL, d=1.019-1.063 g/mL; and HDL, d=1.063-1.21 g/mL) as known to one of skill in the art, and lipoprotein lipid composition (total cholesterol, free cholesterol (FC), and triglyceride (TG) concentrations) are determined enzymatically using kits from Roche Diagnostic (Laval, PQ). An aliquot of each lipoprotein isolated is dialysed into PBS and its surface charge characteristics were determined by electrophoresis on pre-cast 0.5% agarose gels using the procedure of Sparks and Phillips (1992).
Referring now to FIG. 1, there is illustrated the effect of injection of PI and PC vesicles on the estimated surface potential of HDL, LDL, and VLDL proteins in vivo. […] PC, which is a neutral phospholipid, may also bind to the lipoproteins. However since PC is a neutral phospholipid, no significant change in the migration of the lipoproteins is observed. The increased migratory property of lipoproteins in a gel peaks following injection of PI and returns to normal by about 24 hours. […] Similarly, the VLDL fraction is estimated to have an initial surface potential of about −8.8 mV, which increases to about −11.2 mV after 10 minutes. LDL is estimated to have an initial surface potential of about −3.9 mV, and peaks about 60 min after the PI injection at about −8.0 mV.

biliary FC output = experiment: Biliary FC output after injection of PI or PC vesicles containing [^3H]-FC; assay type: in vivo, rabbit; conditions: sacrificed at 30 min
Description: Rabbits are injected with 40 μmol PI or PC vesicles containing 400 μCi […]. Animals are sacrificed at 30 min, and bile is aspirated from the gall bladder. In addition the livers are harvested, homogenized and tissue radioactivity determined. Sterol excretion in the faeces is measured similarly except that faecal cholesterol levels are measured over a time period of 96 hours.
Referring now to FIG. 6, there is shown the effect of PI on biliary FC output after rabbits are injected with PI or PC vesicles containing [^3H]-FC. […] Without wishing to be bound by theory, PI may enhance the clearance of cholesterol from plasma and promote its uptake and accumulation in the liver. In addition, PI injection appears to be associated with an increase output of cholesterol into bile. About 20-fold enhanced output of cholesterol into bile is observed (FIG. 6).

In the case of CCCCCCCC/C=C\CCCCCCCC(=O)O[C@H](COC(=O)CCCCCCCCCCCCCCC)COP(=O)(O)O[C@@H]1[C@H](O)[C@H](O)[C@@H](O)[C@H](O)[C@H]1O [PI, 1-palmitoyl-2-oleoyl phosphatidylinositol], the “effect on lipid hydrolysis by lipoprotein lipase” value (lipoprotein lipase) is reported as “stimulate lipid hydrolysis”, the “effect on amount of cholesterol in the HDL particles” value [1] is reported as “slightly increased” and the “reduction in LDL cholesterol levels” value [1] is reported as roughly 2.5 fold. The “reduction in VLDL cholesterol” value [1] was “greater than 7 fold”, the “HDL surface potential, peak negative charge” value (HDL, LDL and VLDL; about 10 minutes after injection, background about −12.2 mV prior to injection, estimated from gel migration) was “about −18.0 mV” and the “LDL surface potential, peak” value (HDL, LDL and VLDL; about 60 min after injection, initial about −3.9 mV, estimated) was “about −8.0 mV”. For the same molecule, the VLDL surface potential (HDL, LDL and VLDL; after 10 minutes, initial about −8.8 mV, estimated) was “about −11.2 mV”, the “time for increased lipoprotein migration to return to normal” value (HDL, LDL and VLDL; after injection) was “about 24 hours” and the “effect on lipoprotein net negative surface charge / migration of HDL, LDL and VLDL into agarose gel” value (HDL, LDL and VLDL; intravenous injection of vesicles, fasted rabbit) was “significant increase; also recorded: increased migration of all lipoprotein fractions”. For the same molecule, the “[^3H]-FC in plasma and liver in comparison to PC” value (biliary FC output) was “reduction of [^3H]-FC in plasma, and an elevation of [^3H]-FC in the liver” and the “enhanced output of cholesterol into bile” value (biliary FC output; in comparison to PC) was “About 20 fold”.
